EC50 and IC50 data for 49 compounds are collected here from the Kinase Knowledgebase extract (Sharma et al. 2016).

In test [1] the target is PIK3CA (human) (UniProt P42336). The experiment in a line: Inhibition of A2780 Cell Proliferation.
For test [2] the target is unchanged. The test is described as follows: Inhibition of PIK3CA Kinase Activity.

PIK3CA (human), sequence (P42336 whole entry, looked up): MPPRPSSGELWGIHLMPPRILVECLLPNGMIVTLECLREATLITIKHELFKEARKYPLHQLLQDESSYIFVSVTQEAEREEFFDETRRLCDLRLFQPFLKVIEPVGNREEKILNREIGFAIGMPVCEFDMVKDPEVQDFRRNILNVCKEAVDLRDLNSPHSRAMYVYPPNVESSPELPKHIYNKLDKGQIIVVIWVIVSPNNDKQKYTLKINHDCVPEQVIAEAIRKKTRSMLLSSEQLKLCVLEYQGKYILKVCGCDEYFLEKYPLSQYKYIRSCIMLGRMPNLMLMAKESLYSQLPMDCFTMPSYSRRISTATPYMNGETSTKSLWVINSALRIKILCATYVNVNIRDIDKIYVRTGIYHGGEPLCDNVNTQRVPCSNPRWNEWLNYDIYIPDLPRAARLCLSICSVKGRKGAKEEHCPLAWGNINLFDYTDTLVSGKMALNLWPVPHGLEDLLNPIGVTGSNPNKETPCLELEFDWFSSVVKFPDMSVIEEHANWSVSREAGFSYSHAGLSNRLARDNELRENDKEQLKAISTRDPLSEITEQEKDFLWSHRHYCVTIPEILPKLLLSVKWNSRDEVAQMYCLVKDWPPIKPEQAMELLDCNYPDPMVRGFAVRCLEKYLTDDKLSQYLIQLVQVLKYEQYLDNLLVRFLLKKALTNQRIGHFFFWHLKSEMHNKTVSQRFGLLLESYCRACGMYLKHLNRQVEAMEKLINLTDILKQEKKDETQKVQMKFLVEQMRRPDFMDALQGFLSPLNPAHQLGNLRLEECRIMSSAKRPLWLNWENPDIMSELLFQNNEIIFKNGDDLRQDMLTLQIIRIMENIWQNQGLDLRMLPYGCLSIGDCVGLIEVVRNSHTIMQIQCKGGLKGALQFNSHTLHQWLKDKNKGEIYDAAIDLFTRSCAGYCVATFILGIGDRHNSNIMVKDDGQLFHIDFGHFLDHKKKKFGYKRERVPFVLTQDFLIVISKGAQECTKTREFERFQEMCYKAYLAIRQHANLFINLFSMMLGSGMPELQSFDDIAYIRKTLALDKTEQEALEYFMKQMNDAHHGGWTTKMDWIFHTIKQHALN

On to `CCN(CC)Cc1cc(-c2ccc3nc(NC(C)=O)cn3n2)cnc1N`, for which the EC50 on PIK3CA (human) [1] was < 10000 nM. In addition, the IC50 at PIK3CA (human) [2] is < 1000 nM.
Regarding `CC(=O)Nc1cn2nc(-c3cnc(N)c(-c4ccccc4C(F)(F)F)c3)ccc2n1`, on PIK3CA (human) [1], the EC50 is < 1000 nM. The IC50 at PIK3CA (human) [2] was < 1000 nM.
Turning to `C/C=C/C(=O)Nc1cn2cc(-c3cnc(N)c(C(F)(F)F)c3)ccc2n1`, on PIK3CA (human) [1], the EC50 was < 10000 nM. The IC50 at PIK3CA (human) [2] was < 1000 nM.
For `Nc1ncc(-c2ccc3nc(NC(=O)CCCO)cn3c2)cc1C(F)(F)F`, in that order: < 10000 nM and < 1000 nM.
As for `CC(=O)Nc1nc2ccc(-c3cnc(N)c(C(F)(F)F)c3)c(F)c2s1`, the EC50 on PIK3CA (human) [1] was < 10000 nM. Further, the IC50 on PIK3CA (human) [2] is < 1000 nM.
Take `CCOc1nc(-c2ccc3nc(NC(C)=O)cn3n2)cnc1N`: at PIK3CA (human) [1], the EC50 was < 10000 nM. Moreover, at PIK3CA (human) [2], the IC50 was < 1000 nM.
Taken in the same sequence, the figures for `CC(=O)Nc1cn2cc(-c3cnc(N)nc3)ccc2n1` were < 25000 nM and < 1000 nM.
On to `Nc1ncc(-c2ccc3nc(NC(=O)C4CNC4)cn3c2)cc1C(F)(F)F`, for which, at PIK3CA (human) [1], the EC50 is < 10000 nM. Also, the IC50 against PIK3CA (human) [2] is < 1000 nM.
As for `CCOCC(=O)Nc1cn2cc(-c3cnc(N)c(C(F)(F)F)c3)ccc2n1`, the EC50 on PIK3CA (human) [1] is < 10000 nM. The IC50 at PIK3CA (human) [2] was < 1000 nM.
As to `Cc1cc(C(=O)Nc2cn3cc(-c4cnc(N)c(C(F)(F)F)c4)ccc3n2)no1`, the EC50 on PIK3CA (human) [1] is < 1000 nM. Besides, on PIK3CA (human) [2], the IC50 is < 1000 nM.
As to `Nc1ncc(-c2ccc3nc(NC(=O)CN4CCCCC4)cn3c2)nc1OCC(F)(F)F`, the EC50 on PIK3CA (human) [1] is < 1000 nM. Further, on PIK3CA (human) [2], the IC50 was < 1000 nM.
Regarding `CC(C)(C)OC(=O)N1CCN(c2ccc(C(=O)Nc3cn4cc(-c5cnc(N)c(C(F)(F)F)c5)ccc4n3)cn2)CC1`, on PIK3CA (human) [1], the EC50 was < 1000 nM. Moreover, the IC50 at PIK3CA (human) [2] is < 1000 nM.
`CC(=O)Nc1nc2ccc(-c3cnc(N)c(C(F)(F)F)c3)cn2c1Br`: the EC50 at PIK3CA (human) [1] was < 25000 nM. For the same compound, the IC50 on PIK3CA (human) [2] was < 1000 nM.
For the compound `CCCc1c(NC(C)=O)nc2ccc(-c3cnc(N)c(C(F)(F)F)c3)cn12`, the EC50 at PIK3CA (human) [1] was < 25000 nM. Moreover, the 50% inhibitory concentration (IC50) on PIK3CA (human) [2] is < 1000 nM.
For `CN(CC(=O)Nc1cn2nc(-c3cnc(N)c(C(F)(F)F)c3)ccc2n1)C(=O)OC(C)(C)C`, the EC50 on PIK3CA (human) [1] is < 10000 nM. Further, at PIK3CA (human) [2], the IC50 is < 1000 nM.
As to `CC(C)(C)OC(=O)N1CC(C(=O)Nc2cn3nc(-c4cnc(N)c(C(F)(F)F)c4)ccc3n2)C1`, the EC50 on PIK3CA (human) [1] was < 10000 nM. The IC50 against PIK3CA (human) [2] was < 1000 nM.
For `Nc1ncc(-c2ccc3nc(NC(=O)CCCn4ccnc4)cn3c2)cc1C(F)(F)F`, in that order: < 10000 nM and < 1000 nM.
In the case of `Nc1ncc(-c2ccc3nc(NC(=O)CCCN4CCCCC4)cn3n2)cc1C(F)(F)F`, on PIK3CA (human) [1], the EC50 was < 1000 nM. Besides, the IC50 at PIK3CA (human) [2] is < 1000 nM.
Regarding `CC(=O)N1CCC[C@H]1C(=O)Nc1cn2cc(-c3cnc(N)c(C(F)(F)F)c3)ccc2n1`, the EC50 on PIK3CA (human) [1] is < 25000 nM. In addition, the IC50 at PIK3CA (human) [2] was < 1000 nM.
Take `Nc1ncc(-c2ccc3nc(NC(=O)CO[C@@H]4CCNC4)cn3c2)cc1C(F)(F)F`: at PIK3CA (human) [1], the EC50 is < 10000 nM. The IC50 against PIK3CA (human) [2] is < 1000 nM.
For `CC(=O)Nc1cn2cc(-c3cnc(N)c(F)c3)ccc2n1`, in that order: < 25000 nM and < 1000 nM.
In the case of `CC(=O)Nc1cn2cc(-c3cnc(N)c(C=NNc4ccccc4)c3)ccc2n1`, the EC50 on PIK3CA (human) [1] was < 1000 nM. In addition, on PIK3CA (human) [2], the IC50 is < 1000 nM.
Turning to `CC(=O)Nc1cn2cc(-c3cnc(N)c(CN4CCCC4)c3)ccc2n1`, the EC50 on PIK3CA (human) [1] is < 25000 nM. At PIK3CA (human) [2], the IC50 was < 1000 nM.
For `CC(=O)Nc1cn2nc(-c3cnc(N)c(-c4ccc(C(F)(F)F)cc4)c3)ccc2n1`, the EC50 at PIK3CA (human) [1] was < 1000 nM. In addition, at PIK3CA (human) [2], the IC50 was < 1000 nM.
`Nc1ncc(-c2ccc3nc(NC(=O)Cc4ccccn4)cn3c2)cc1C(F)(F)F`: the EC50 at PIK3CA (human) [1] was < 10000 nM. Moreover, the IC50 against PIK3CA (human) [2] was < 1000 nM.
Regarding `Nc1ncc(-c2ccc3nc(NC(=O)[C@@H]4CCCCN4Cc4ccccc4)cn3c2)cc1C(F)(F)F`, the EC50 at PIK3CA (human) [1] was < 10000 nM. Also, the IC50 on PIK3CA (human) [2] is < 1000 nM.
For `CC(=O)Nc1cn2nc(-c3cnc(N)c(-c4ccccc4OC(F)(F)F)c3)ccc2n1`, at PIK3CA (human) [1], the EC50 was < 1000 nM. Further, the concentration for half-maximal inhibition (IC50) against PIK3CA (human) [2] is < 1000 nM.
As for `CC(=O)Nc1cn2cc(-c3ccc(N)nc3)ccc2n1`, at PIK3CA (human) [1], the EC50 is < 10000 nM. At PIK3CA (human) [2], the IC50 was < 1000 nM.
As to `COc1ccc(CC(=O)Nc2cn3cc(-c4cnc(N)c(C(F)(F)F)c4)ccc3n2)cc1`, the EC50 on PIK3CA (human) [1] was < 1000 nM. Also, at PIK3CA (human) [2], the half-maximal inhibitory concentration (IC50) is < 1000 nM.
As for `N#Cc1ccc(C(=O)Nc2cn3cc(-c4cnc(N)c(C(F)(F)F)c4)ccc3n2)cc1`, at PIK3CA (human) [1], the EC50 is < 25000 nM. Moreover, the IC50 on PIK3CA (human) [2] is < 1000 nM.
Regarding `CC(=O)Nc1cn2cc(-c3ccc(N)nc3C)ccc2n1`, at PIK3CA (human) [1], the EC50 was < 25000 nM. The IC50 at PIK3CA (human) [2] is < 1000 nM.
Take `Nc1ncc(-c2ccc3nc(NC(=O)c4ccc(N5CCNCC5)nc4)cn3c2)cc1C(F)(F)F`: the EC50 at PIK3CA (human) [1] is < 10000 nM. Moreover, the IC50 on PIK3CA (human) [2] is < 1000 nM.
On to `CNC(=O)Nc1nc2ccc(-c3ccc(N)nc3)cc2s1`, for which the EC50 on PIK3CA (human) [1] is < 10000 nM. Besides, the IC50 on PIK3CA (human) [2] is < 1000 nM.
`CC(=O)Nc1cn2cc(-c3cnc(N)c(N4CCN(C)CC4)n3)ccc2n1`: the EC50 on PIK3CA (human) [1] is < 10000 nM. The IC50 at PIK3CA (human) [2] is < 1000 nM.
As for `CC(=O)Nc1nc2ccc(-c3cnc(N)c(C(F)(F)F)c3)cn2c1C#Cc1ccc(C)cc1`, on PIK3CA (human) [1], the EC50 was < 10000 nM. In addition, the IC50 against PIK3CA (human) [2] is < 1000 nM.
`CC(=O)Nc1nc2ccc(-c3cnc(N)c(C(F)(F)F)c3)cn2c1Cl`: the EC50 on PIK3CA (human) [1] is < 10000 nM. In addition, the IC50 against PIK3CA (human) [2] was < 1000 nM.
Take `Nc1ncc(-c2ccc3nc(NC(=O)c4ccc(F)nc4)cn3c2)cc1C(F)(F)F`: the EC50 at PIK3CA (human) [1] was < 25000 nM. In addition, the IC50 against PIK3CA (human) [2] was < 1000 nM.
For the compound `Nc1ncc(-c2ccc3nc(NC(=O)[C@@H]4CCCN4)cn3c2)cc1C(F)(F)F`, on PIK3CA (human) [1], the EC50 is < 10000 nM. Besides, the IC50 at PIK3CA (human) [2] was < 25000 nM.
Taken in the same sequence, the figures for `CNC(=O)c1ccc(-c2c(NC(C)=O)nc3ccc(-c4cnc(N)c(C(F)(F)F)c4)cn23)cc1` were < 25000 nM and < 1000 nM.
With `CC(=O)Nc1cn2c(C)c(-c3cnc(N)c(OCC(F)(F)F)n3)ccc2n1`, the EC50 at PIK3CA (human) [1] is < 10000 nM. Besides, the IC50 at PIK3CA (human) [2] is < 1000 nM.
`COC(=O)Nc1nc2ccc(-c3ccc(N)nc3)cc2s1`: the EC50 at PIK3CA (human) [1] was < 10000 nM. Further, the IC50 on PIK3CA (human) [2] is < 1000 nM.
As for `CC(=O)Nc1nc2ccc(-c3cnc(N)nc3C(F)(F)F)cc2s1`, on PIK3CA (human) [1], the EC50 is < 25000 nM. Moreover, the IC50 against PIK3CA (human) [2] was < 1000 nM.
In the case of `CC(C)(C)OC(=O)N1CCC[C@H]1C(=O)Nc1cn2nc(-c3cnc(N)c(C(F)(F)F)c3)ccc2n1`, the EC50 at PIK3CA (human) [1] was < 25000 nM. Also, at PIK3CA (human) [2], the IC50 is < 1000 nM.
For the compound `COCCOc1nc(-c2ccc3nc(NC(=O)CN4CCCCC4)cn3c2)cnc1N`, the EC50 on PIK3CA (human) [1] was < 10000 nM. Further, the IC50 at PIK3CA (human) [2] was < 1000 nM.
Taken in the same sequence, the figures for `CC(C)(C)OC(=O)N1CCCCC1CCC(=O)Nc1cn2nc(-c3cnc(N)c(C(F)(F)F)c3)ccc2n1` (stereo not drawn) were < 10000 nM and < 1000 nM.
Take `CN(C)C1CCN(C(=O)Nc2cn3cc(-c4cnc(N)c(C(F)(F)F)c4)ccc3n2)C1` (stereo not drawn): on PIK3CA (human) [1], the EC50 was < 10000 nM. For the same compound, the IC50 against PIK3CA (human) [2] was < 1000 nM.
For `Nc1ncc(-c2ccc3nc(NC(=O)CCCC(=O)O)cn3n2)cc1C(F)(F)F`, in that order: < 25000 nM and < 1000 nM.
As to `CC(=O)Nc1cn2cc(-c3cnc(N)c(Oc4ccccc4)n3)ccc2n1`, the EC50 at PIK3CA (human) [1] is < 1000 nM. In addition, the IC50 on PIK3CA (human) [2] is < 1000 nM.
In the case of `CC(=O)Nc1cn2cc(-c3cnc(N)c(C)n3)ccc2n1`, on PIK3CA (human) [1], the EC50 was < 10000 nM. Moreover, the IC50 at PIK3CA (human) [2] was < 1000 nM.

Usually EC50 stands for the concentration at which the effect is half-maximal. A high value points to a need for much substance. Broadly, the IC50 is the point on the concentration scale where inhibition reaches its midpoint.
